Results reported in PubChem BioAssay (NCI).
Where “and” joins values, the source holds several entries; their conditions need not be identical. Equal entries are not always repeated.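 How tested: cells in 96-well plates exposed to compound for 48 hours at five concentrations. Here, GI50 denotes the concentration required for 50% inhibition of growth. TGI marks complete inhibition of growth.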

Tests used:
Test in all cases: growth of human tumour cells (NCI), 48 h
U251 CNS = tested on: U251 CNS
RXF 393 renal = tested on: RXF 393 renal
HOP-92 NSCLC = tested on: HOP-92 NSCLC
SK-OV-3 ovarian = tested on: SK-OV-3 ovarian
UACC-62 melanoma = tested on: UACC-62 melanoma
SK-MEL-2 melanoma = tested on: SK-MEL-2 melanoma
RPMI-8226 leukemia = tested on: RPMI-8226 leukemia
UACC-257 melanoma = tested on: UACC-257 melanoma
ACHN renal = tested on: ACHN renal
SK-MEL-5 melanoma = tested on: SK-MEL-5 melanoma

Compound | TGI (U251 CNS) [µM] | TGI (RXF 393 renal) [µM] | TGI (HOP-92 NSCLC) | TGI (SK-OV-3 ovarian) [µM] | TGI (UACC-62 melanoma) [µM] | TGI (SK-MEL-2 melanoma) | TGI (RPMI-8226 leukemia) [µM] | TGI (UACC-257 melanoma) [µM] | TGI (ACHN renal) [µM] | TGI (SK-MEL-5 melanoma) [µM] | GI50 (U251 CNS) | GI50 (RXF 393 renal) [µM] | GI50 (HOP-92 NSCLC) | GI50 (SK-OV-3 ovarian) [µM] | GI50 (UACC-62 melanoma) | GI50 (SK-MEL-2 melanoma) [µM] | GI50 (RPMI-8226 leukemia) [µM] | GI50 (UACC-257 melanoma) [µM] | GI50 (ACHN renal) [µM] | GI50 (SK-MEL-5 melanoma) [µM]
CN1CCN(CCSC2Cc3cc(Cl)ccc3Sc3ccccc32)CC1 (stereo unspecified) | 19.1 | 15.3 | 12.4 µM | 32.5 | 3.63 | 3.75 µM | 5.34 | 4.38 | 19.8 | 7.88 |  |  |  |  |  |  |  |  |  | 
NC(N)=N/N=C(/c1nc2ccc([N+](=O)[O-])cc2[nH]c1=O)C(O)c1ccco1 (stereo unspecified) | > 100 | > 100 | > 100 µM | > 100 | > 100 | > 100 µM | > 100 | > 100 | > 100 | > 100 |  |  |  |  |  |  |  |  |  | 
CCCCCCNC(=O)C1=C(C)NC(C)=C(C(=O)NCCCCCC)C1 | > 100 | > 100 | > 100 µM | > 100 | > 100 | > 100 µM | > 100 | > 100 | > 100 | > 100 |  |  |  |  |  |  |  |  |  | 
O=C(O)C1CCc2ccc3ccccc3c2C1c1cccc2ccccc12 (stereo unspecified) | 33.8 | 39.6 | 38.6 µM | > 100 | 29.4 | 38.6 µM | > 100 | 59.4 | > 100 | 30.1 |  |  |  |  |  |  |  |  |  | 
CC1=CSC2=NC(c3ccc(Cl)c(Cl)c3)=CC(c3ccc(Cl)cc3)N12 (stereo unspecified) | > 100 | > 100 | > 100 µM | > 100 | > 100 | > 100 µM | > 100 | > 100 | > 100 | > 100 | > 100 µM | > 100 | > 100 µM | > 100 | > 100 µM | > 100 | > 100 | > 100 | > 100 | > 100
O=C1C=C(c2c(O)ccc3ccccc23)c2ccccc2C1=O | 5.13 | 5.06 | 5.09 µM | 23.9 | 5.48 | 15.8 µM | 15.7 | 6.49 | 11.7 | 7.42 |  |  |  |  |  |  |  |  |  | 
CCCCNc1nc(NC(C)(C)C)nc(NC(C)(C)C)n1 | 36.7 | 76.9 | 24.2 µM | > 100 | > 100 | > 100 µM | > 100 | > 100 | > 100 | 17.7 | 5.92 µM | 8.07 | 1.38 µM | 19.4 | 3.25 µM | 15.4 | 1.4 | 81.3 | 6.41 | 3.49
CCOC(=O)[C@@H](C)C[C@H](Cc1ccccc1)NC(=O)c1csc([C@@H](C[C@H](C(C)C)N(C)C(=O)[C@@H](NC(=O)[C@H]2C[C@H](O[Si](C)(C)C(C)(C)C)CCN2C)C(C)C)OC(C)=O)n1 | > 4.18 | 0.481 | 6.06 µM | > 8.33 | 3.58 | > 7.21 µM | 2.25 | > 8.33 | > 8.33 | 1.39 | 0.319 µM | 0.159 | 0.181 µM | 0.198 | 0.0545 µM | 0.263 | 0.275 | 0.789 | 0.427 | 0.187
COc1cc2c(cc1C)NC(=O)/C2=C\c1cc(OC)c(OC)c(OC)c1 | > 100 | 36.1 | 30.6 µM | > 100 | > 100 | > 100 µM | > 100 | > 100 | > 100 | > 100 | 22.9 µM | 14.2 | 10.4 µM | 83.3 | 37.3 µM | 34.3 | > 100 | 91.2 | 64.1 | > 100
O=C(Nc1ccccc1C(F)(F)F)c1cccc(NC2=C(Cl)C(=O)N(Cc3ccccc3)C2=O)c1 | 41.7 | 12.3 | > 100 µM | > 100 | 52.7 | 79 µM | > 100 | 70.1 | 26.9 | 3.04 | 6.68 µM | 3.13 | 26.3 µM | 38.9 | 9.46 µM | 14.9 | 13.1 | 11.2 | 5.39 | 
CCOc1ccc(/C=C/C(=O)c2ccccc2)cc1 | 20.7 | 29.2 | 41.2 µM | 56 | 36.5 | 38.2 µM | 20.5 | 33.1 | 34.9 | 31.2 | 7.19 µM | 15.2 | 19.6 µM | 21.5 | 17 µM | 20.4 | 3.95 | 16.1 | 18.1 | 17.1
Cc1c(CCCl)c(=O)n2c([nH]c3ccccc32)c1C#N | 3.45 | 3.8 | 2.82 µM | 3.84 | 2.75 | 4.46 µM | 7.45 | 8.04 | 2.81 | 2.8 |  |  |  |  |  |  |  |  |  | 
CC1(C)C(=O)N(c2ccccc2)C(=O)N1c1nc2ccccc2[nH]1 |  | > 100 | > 100 µM | > 100 | > 100 | > 100 µM | > 100 | > 100 | > 100 | > 100 |  |  |  |  |  |  |  |  |  | 
CC1(C)C=CC[C@]2(C)[C@H]3CC[C@@H]4[C@H]5[C@H](C(=O)/C=C/c6cccnc6)CC[C@]5(CO)CC[C@@]4(C)[C@]3(C)CC[C@@H]12 | 2.65 | 2.37 | 2.05 µM | 3.62 | 2.55 | 2.76 µM | 5.35 | 2.91 | 2.35 | 2.79 | 1.24 µM | 1.12 | 0.66 µM | 1.78 | 1.23 µM | 1.28 | 0.843 | 1.39 | 1.14 | 1.46
COc1cc(OC2OC(C)C(O)C(O)C2O)cc2oc(-c3ccc(O)cc3)c(CC=C(C)C)c(=O)c12 (stereo unspecified) |  | 64.6 | 54.8 µM | 45.4 | 31.9 | > 100 µM | 26.6 | 68.4 | 59.8 | 30.9 |  | 20.3 | 12.4 µM | 20.8 | 12.8 µM | 35.9 | 9.02 | 29.6 | 22 | 13.6
c1ccc2c(c1)[I+]c1ccccc1-2 | > 50 | > 50 | > 50 µM | > 50 | > 50 | > 50 µM | > 50 | > 50 | > 50 | > 50 | 25.5 µM | > 50 | 18.9 µM | > 50 | > 50 µM | > 50 | 31.7 | > 50 | > 50 | 24.3
O=[N+]([O-])c1ccc2[nH]cc(-c3c4ccsc4cc4[nH]c5ccc([N+](=O)[O-])cc5c34)c2c1 | 16.6 | 1.85 | 6.94 µM | 7.21 | 8.01 | 4.18 µM | 5.1 | 10.5 | 14.9 | 2.01 | 1.1 µM | 0.592 | 0.882 µM | 1.25 | 0.641 µM | 0.861 | 1.04 | 2.92 | 1.52 | 0.394
C[CH2][Sn]1([CH2]C)[O]C(=O)[O][Sn]([CH2]C)([CH2]C)[O]1 | 29.8 | 30.3 | 33.1 µM | > 100 | 32.5 | 29.6 µM | 47.6 | 33 | > 64.6 | 40.8 | 14.8 µM | 15.5 | 17.7 µM | > 100 | 16.8 µM | 15.8 | 17.2 | 17.8 | > 50.4 | 21.1
Cc1ccc(C(=O)c2oc3ccc4c(C)cc(=O)oc4c3c2C)cc1 | > 100 | 91 | 95.2 µM | > 100 | > 100 | > 100 µM | > 100 | > 100 | 94.3 | > 100 | 3.64 µM | 13.8 | 27.1 µM | 18 | 2.66 µM | 35 | 7.7 | 35.9 | 3.65 | 2.69
CC1CC(c2ccccc2)=Nc2ccccc2S1(=O)=O (stereo unspecified) | 31.9 | 28.7 | 48.7 µM | 36.4 | 55.7 | 31.3 µM | 5.59 | 23.8 | 30.1 | 32.5 |  |  |  |  |  |  |  |  |  | 
COc1ccc2c(c1)C(=O)CC(N)C2 (stereo unspecified) | > 100 | > 100 | > 100 µM | > 100 | > 100 | > 100 µM | > 100 | > 100 | > 100 | > 100 |  |  |  |  |  |  |  |  |  | 
CCN(CC)CCNc1c(OC)cc(C)c2sc3ccccc3c(=O)c12 | 16 | 34 | 32.2 µM | 31.3 | 3.36 | 27.9 µM | 3.05 | 3.6 | 15.8 | 3.4 |  |  |  |  |  |  |  |  |  | 
Nc1nc(-c2cccc([N+](=O)[O-])c2)c(Br)c(=O)[nH]1 | > 100 | > 100 | > 100 µM | > 100 | > 69.7 | > 100 µM | > 100 | > 71.4 | > 100 | > 91.1 |  |  |  |  |  |  |  |  |  | 
O=C1c2cc(Br)ccc2-c2c1c1ccc([N+](=O)[O-])cc1c(=O)n2CCCCl | 15.6 | 14.2 | 23.9 µM | 16 | 1.08 | 37.3 µM | 0.647 | 2.85 | 6.79 | 1.02 | < 0.0219 µM | 0.487 | 0.453 µM | 0.16 | 0.0264 µM | 10.8 | < 0.0289 | 0.287 | < 0.0151 | 0.24
COc1cc(OC)c(/C=C/c2ccc3ccccc3[n+]2C)c(OC)c1 | 8.97 | 11.7 | 4.51 µM | 26 | 3.08 | 3.06 µM | 2.24 | 3.19 | > 75.5 | 1.95 | 0.323 µM | 2.06 | 0.951 µM | 1.37 | 1.13 µM | 1.13 | 0.281 | 0.49 | 4.32 | 0.567
CC(=O)Oc1cc(C)ccc1[C@]1(C)CC[C@H](C)/C1=C\Br | 16.6 | 15.9 | 12.9 µM | 7.65 | 19.7 | 24.7 µM | 8.09 | 20.8 | 20.1 | 11.5 | 4.92 µM | 3.86 | 2.03 µM | 2.43 | 5.98 µM | 7.21 | 2.71 | 8.28 | 5.7 | 3.32
CC(=O)OCC1OC(n2c(-c3ccccc3)cc(-c3ccco3)c(C#N)c2=O)C(OC(C)=O)C(OC(C)=O)C1OC(C)=O (stereo unspecified) | > 100 | > 100 | 21.8 µM and > 100 µM | > 100 | > 100 | 36.9 µM and > 100 µM | > 100 | > 100 | > 100 | > 100 | 98 µM and 17.8 µM |  | 9.2 µM and 50.8 µM |  | 23.3 µM and 55.8 µM |  |  |  |  | 
O=C(C(O)c1cn(Cc2ccccc2)c2ccccc12)N1CCCCC1 (stereo unspecified) | > 10 | > 10 | > 100 µM | > 100 | > 100 | > 100 µM | > 100 | > 100 | > 100 | > 100 |  |  |  |  |  |  |  |  |  | 
N#CCCc1nc2ccc(Br)cc2c(=O)n1CCO |  | > 100 | > 100 µM | > 100 | > 100 | > 100 µM | > 100 | > 100 |  | > 100 |  |  |  |  |  |  |  |  |  | 
COc1ccc(NC(=O)C2C(=O)N(c3ccc(OC)cc3)C(=O)/C2=N/O)cc1 (stereo unspecified) | 42.9 | 30.5 | 47.8 µM | 39 | 45.8 | > 86.8 µM | > 100 | > 80.5 | 43.2 |  |  |  |  |  |  |  |  |  |  | 
